Legend:
Splenocyte [1] = assay: Immunosuppressive activity in BALB/c mouse splenocytes assessed as reduction in ConA-induced mouse T-lymphocytes proliferation; assay type: functional, cell-based
[2] = Cytotoxicity against mouse T-lymphocytes; assay type: toxicity, cell-based, T-cell
[3] = Selectivity index, ratio of CC50 for cytotoxicity against mouse T lymphocytes to IC50 for Immunosuppressive activity in BALB/c mouse splenocytes assessed as reduction in […]-induced mouse B-lymphocytes proliferation; assay type: toxicity, cell-based
[4] = Cytotoxicity against mouse B-lymphocytes; assay type: toxicity, cell-based, B-cell
Splenocyte [5] = assay: Immunosuppressive activity in BALB/c mouse splenocytes assessed as reduction in […]-induced mouse B-lymphocyte proliferation; assay type: functional, cell-based
[6] = Selectivity index, ratio of CC50 for cytotoxicity against mouse T lymphocytes to IC50 for Immunosuppressive activity in BALB/c mouse splenocytes assessed as reduction in ConA-induced mouse T-lymphocytes proliferation; assay type: toxicity, cell-based
MCF7 = assay: Cytotoxicity against human MCF7 cells; assay type: functional, cell-based
Splenocyte [7] = assay: Immunosuppressive activity in LPS-induced BALB/c mouse splenocyte assessed as reduction in IL-6 cytokine level incubated for 48 hrs by ELISA assay; assay type: functional, cell-based; conditions: dose 0.2-5 µM

COc1cc(OC)c2c(c1)C(=O)C1C=C3O[C@@]4(C)CC[C@H](O)[C@H](O4)C3=C(O)C1C2=O (stereo partly drawn)
IC50 (Splenocyte [1]): > 40 µM | CC50 [2]: > 40 µM | selectivity ratio [3]: > 5.7 | CC50 [4]: > 40 µM | IC50 (Splenocyte [5]): 7 µM

COc1c(C)c2c(c(O)c1C/C=C(\C)CCC(=O)OCCN1CCOCC1)C(=O)OC2 [MYCOPHENOLATE MOFETIL]
IC50 (Splenocyte [5]): 0.21 µg/mL

C[C@]12CCC[C@H](O1)c1c(cc3c(c1O)C(=O)c1c(O)cc(O)cc1C3=O)O2
IC50 (Splenocyte [1]): 4.8 µM | CC50 [2]: > 40 µM | selectivity ratio [6]: > 8.3 | selectivity ratio [3]: > 1.8 | CC50 [4]: > 40 µM | IC50 (Splenocyte [5]): 22 µM

CO[C@@H]1C[C@@]2(O)C3=C(O)C4C(=O)c5c(O)ccc(CCC(C)(C)O)c5OC4C=C3O[C@H]2O1 (stereo partly drawn)
IC50 (Splenocyte [1]): 1.3 µM | CC50 [2]: 7.7 µM | selectivity ratio [6]: 5.9 | selectivity ratio [3]: 2 | CC50 [4]: 7.7 µM | IC50 (Splenocyte [5]): 3.8 µM

COC1=C2C(=CC3Oc4cccc(O)c4C(=O)C13)O[C@H]1OC=C[C@@]21O (stereo partly drawn)
IC50 (Splenocyte [1]): > 40 µM | CC50 [2]: > 40 µM | CC50 [4]: > 40 µM | IC50 (Splenocyte [5]): > 40 µM

COC1=C2C(=CC3Oc4c(OC)cc(Cl)c(OC)c4C(=O)C13)O[C@H]1OC=C[C@@H]21 (stereo partly drawn)
IC50 (Splenocyte [1]): 7.1 µM | CC50 [2]: 12 µM | selectivity ratio [6]: 1.7 | selectivity ratio [3]: 0.92 | CC50 [4]: 12 µM | IC50 (Splenocyte [5]): 13 µM

CC(C)(O)C[C@H](O)c1ccc(O)c2c1OC1C=C3O[C@H]4OC=C[C@@]4(O)C3=C(O)C1C2=O (stereo partly drawn)
IC50 (Splenocyte [1]): 0.93 µM | IC50 (MCF7): 460 nM | CC50 [2]: 16 µM | selectivity ratio [6]: 17 | selectivity ratio [3]: 1.3 | CC50 [4]: 16 µM | IC50 (Splenocyte [5]): 12 µM | Activity (Splenocyte [7]): Dose-Dependent Effect

COC1=C2C(=CC3Oc4ccc(Cl)c(OC)c4C(=O)C13)O[C@H]1O[C@H](OC(C)=O)C[C@@H]21 (stereo partly drawn)
IC50 (Splenocyte [1]): 16 µM | CC50 [2]: 28 µM | selectivity ratio [6]: 1.8 | selectivity ratio [3]: 1.4 | CC50 [4]: 28 µM | IC50 (Splenocyte [5]): 20 µM

COc1ccc(CCC(C)(C)O)c2c1C(=O)C1C(O)=C3C(=CC1O2)O[C@H]1OC=C[C@@]31O (stereo partly drawn)
IC50 (Splenocyte [1]): 1 µM | IC50 (MCF7): 460 nM | CC50 [2]: 14 µM | selectivity ratio [6]: 14 | selectivity ratio [3]: 1.7 | CC50 [4]: 14 µM | IC50 (Splenocyte [5]): 8.4 µM | Activity (Splenocyte [7]): Dose-Dependent Effect

CC(C)=CCc1ccc(O)c2c1OC1C=C3O[C@H]4OC=C[C@@]4(O)C3=C(O)C1C2=O (stereo partly drawn)
IC50 (Splenocyte [1]): 14 µM | CC50 [2]: 15 µM | selectivity ratio [6]: 1.1 | selectivity ratio [3]: 0.94 | CC50 [4]: 15 µM | IC50 (Splenocyte [5]): 16 µM

O=C1c2c(O)cccc2OC2C=C3O[C@H]4OC=C[C@@]4(O)C3=C(O)C12 (stereo partly drawn)
IC50 (Splenocyte [1]): 9.4 µM | CC50 [2]: > 40 µM | selectivity ratio [6]: > 4.2 | CC50 [4]: > 40 µM | IC50 (Splenocyte [5]): > 40 µM

COC1=C2C(=CC3Oc4ccc(Cl)c(OC)c4C(=O)C13)O[C@H]1O[C@H](OC)C[C@@H]21 (stereo partly drawn)
IC50 (Splenocyte [1]): 11 µM | CC50 [2]: > 40 µM | selectivity ratio [6]: > 3.6 | selectivity ratio [3]: > 7.8 | CC50 [4]: > 40 µM | IC50 (Splenocyte [5]): 5.1 µM

COC1=C2C(=CC3Oc4ccc(Cl)c(OC)c4C(=O)C13)O[C@H]1O[C@@H](OC)C[C@@H]21 (stereo partly drawn)
IC50 (Splenocyte [1]): 27 µM | CC50 [2]: > 40 µM | selectivity ratio [6]: > 1.5 | selectivity ratio [3]: > 3.6 | CC50 [4]: > 40 µM | IC50 (Splenocyte [5]): 11 µM

COC1=C2C(=CC3Oc4c(CCC(C)(C)O)ccc(O)c4C(=O)C13)O[C@H]1OC=C[C@@H]21 (stereo partly drawn)
IC50 (Splenocyte [1]): 4 µM | IC50 (MCF7): 460 nM | CC50 [2]: 17 µM | selectivity ratio [6]: 4.3 | selectivity ratio [3]: 2.9 | CC50 [4]: 17 µM | IC50 (Splenocyte [5]): 5.8 µM

CC(C)(O)CCc1ccc(O)c2c1OC1C=C3O[C@H]4OCC[C@H]4C3=C(O)C1C2=O (stereo partly drawn)
IC50 (Splenocyte [1]): 1 µM | CC50 [2]: 5.2 µM | selectivity ratio [6]: 5.2 | selectivity ratio [3]: 1.4 | CC50 [4]: 5.2 µM | IC50 (Splenocyte [5]): 3.6 µM

COc1c(Cl)ccc2c1C(=O)C1C(O)=C3C(=CC1O2)O[C@H]1OC=C[C@@]31O (stereo partly drawn)
IC50 (Splenocyte [1]): > 40 µM | CC50 [2]: > 40 µM | CC50 [4]: > 40 µM | IC50 (Splenocyte [5]): > 40 µM

CO[C@@H]1C[C@H]2C3=C(O)C4C(=O)c5c(O)ccc(CCC(C)(C)O)c5OC4C=C3O[C@H]2O1 (stereo partly drawn)
IC50 (Splenocyte [1]): 2.1 µM | CC50 [2]: 12 µM | selectivity ratio [6]: 5.7 | selectivity ratio [3]: 2.5 | CC50 [4]: 12 µM | IC50 (Splenocyte [5]): 4.8 µM

CO[C@H]1C[C@@]2(O)C3=C(O)C4C(=O)c5c(O)ccc(CCC(C)(C)O)c5OC4C=C3O[C@H]2O1 (stereo partly drawn)
IC50 (Splenocyte [1]): 1.2 µM | CC50 [2]: 8.9 µM | selectivity ratio [6]: 7.4 | selectivity ratio [3]: 2.1 | CC50 [4]: 8.9 µM | IC50 (Splenocyte [5]): 4.3 µM

CCCCC[C@H](OC)c1c(O)cc2c(c1O)C(=O)C1C(O)=CC(O)=CC1C2=O (stereo partly drawn)
IC50 (Splenocyte [1]): > 40 µM | CC50 [2]: > 40 µM | CC50 [4]: > 40 µM | IC50 (Splenocyte [5]): > 40 µM

CO[C@H]1C[C@H]2C3=C(O)C4C(=O)c5c(O)ccc(CCC(C)(C)O)c5OC4C=C3O[C@H]2O1 (stereo partly drawn)
IC50 (Splenocyte [1]): 1.1 µM | CC50 [2]: 15 µM | selectivity ratio [6]: 14 | selectivity ratio [3]: 1.9 | CC50 [4]: 15 µM | IC50 (Splenocyte [5]): 7.9 µM | Activity (Splenocyte [7]): Dose-Dependent Effect

COC1=C2C(=CC3Oc4c(OC)cc(Cl)c(OC)c4C(=O)C13)O[C@H]1O[C@@H](O)C[C@@H]21 (stereo partly drawn)
IC50 (Splenocyte [1]): 11 µM | CC50 [2]: 31 µM | selectivity ratio [6]: 2.8 | selectivity ratio [3]: 3.1 | CC50 [4]: 31 µM | IC50 (Splenocyte [5]): 10 µM

CC(C)(O)CCc1ccc(O)c2c(=O)c3c(O)c4c(cc3oc12)O[C@H]1OC=C[C@@]41O [AUSTOCYSTIN D]
IC50 (Splenocyte [1]): 1.6 µM | IC50 (MCF7): 460 nM | CC50 [2]: 7.8 µM | selectivity ratio [6]: 4.9 | selectivity ratio [3]: 2 | CC50 [4]: 7.8 µM | IC50 (Splenocyte [5]): 4 µM

CCCCC[C@H](O)c1c(O)cc2c(c1O)C(=O)C1C(O)=CC(O)=CC1C2=O (stereo partly drawn)
IC50 (Splenocyte [1]): > 40 µM | CC50 [2]: > 40 µM | selectivity ratio [3]: > 2.4 | CC50 [4]: > 40 µM | IC50 (Splenocyte [5]): 17 µM

CC(C)(O)C[C@H](O)c1ccc(O)c2c1OC1C=C3O[C@H]4OC=C[C@H]4C3=C(O)C1C2=O (stereo partly drawn)
IC50 (Splenocyte [1]): 1.2 µM | IC50 (MCF7): 460 nM | CC50 [2]: 8.1 µM | selectivity ratio [6]: 6.8 | selectivity ratio [3]: 1.1 | CC50 [4]: 8.1 µM | IC50 (Splenocyte [5]): 7.5 µM

Source: ChEMBL document CHEMBL5335833, “Asperustins A-J: Austocystins with Immunosuppressive and Cytotoxic Activities from Aspergillus ustus NRRL 5856” (J Nat Prod, 2024)
